According to patent US9498483B2, “2,3,5-trisubstituted thiophene compounds and uses thereof” (priority 2010, dated 2016):
pIC50: −log10 of the molar value.

How the values were obtained:
HCV polymerase = target: T1, HCV polymerase (Hepatitis C virus genotype 1b, UniProt Q9WMX2); test: Polymerase assay of Biological Example 1 (IC50 values of Table 3); format: biochemical; conditions: IC50 values of Table 3, polymerase assay of Biological Example 1; read-out: NS5B-enzyme3
T1 construct: (His)6 (C); made in house; host or cells: XL-1 cells (E. coli, by own knowledge)

[1] = tested on: HCV replicon I389luc-ubi-neo/NS3-3′/ET in ET (Huh-lucubineo-ET) cells; test: Replicon assay (Biological Example 2), luciferase readout; format: cell-based; conditions: Hepatitis C virus
Outline: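 EC50 values come from Hill fits of % inhibition of replicon-driven firefly luciferase, relative to no-compound wells. Compounds were serially diluted (10 points, 3-fold, 0.1 nM–50 μM final, 0.5% DMSO) onto ET replicon cells and read after 48 h.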

[2] = ET cells, luciferase activity 48 hours after compound

`Cc1ccc(-c2cc(N3C(=O)CN(S(=O)(=O)c4ccc(N5CCC[C@H]5C)nc4)C[C@H]3C3CCCCC3)c(C(=O)O)s2)cc1` [Compound 180, 3-{(R)-2-Cyclohexyl-4-[6-((R)-2-methyl-pyrrolidin-1-yl)-pyridine-3-sulfonyl]-6-oxo-piperazin-1-yl}-5-p-tolyl-thiophene-2-carboxylic acid] gave a pIC50 (HCV polymerase) greater than 9.70 and a pIC50 [1, 2] of no less than 7.00.

For `CC(C)(C)C#Cc1cc(N2C(=O)OC[C@H]2C2CCCCC2)c(C(=O)O)s1` [Compound 181, 3-((R)-4-Cyclohexyl-2-oxo-oxazolidin-3-yl)-5-(3,3-dimethyl-but-1-ynyl)-thiophene-2-carboxylic acid], the pIC50 (HCV polymerase) was 8.52 and the pIC50 ([1]; between 100 nM and 5.0 uM) was 5.30 to 7.00.

With `O=C(O)c1sc(-c2ccccc2)cc1N1C(=O)CN(Cc2ccc(N3CCCC3)nc2)C[C@H]1C1CCCCC1` [Compound 182, 3-[(R)-2-Cyclohexyl-6-oxo-4-(6-pyrrolidin-1-yl-pyridin-3-ylmethyl)-piperazin-1-yl]-5-phenyl-thiophene-2-carboxylic acid] the pIC50 (HCV polymerase) was 8.70 and the pIC50 [1, 2] was no less than 7.00.

`C[C@@H]1CCCCN1c1ccc(S(=O)(=O)N2CC(=O)N(c3cc(-c4ccccc4)sc3C(=O)O)[C@H](C3CCCCC3)C2)cn1` [Compound 183, 3-[(R)-2-Cyclohexyl-4-((R)-2-methyl-3,4,5,6-tetrahydro-2H-[1,2′]bipyridinyl-5′-sulfonyl)-6-oxo-piperazin-1-yl]-5-phenyl-thiophene-2-carboxylic acid] was tested, and the pIC50 (HCV polymerase) was 8.74 and the pIC50 [1, 2] was no less than 7.00.

`O=C(O)c1sc(-c2ccccc2)cc1N1C(=O)CN(S(=O)(=O)c2ccc(N3CCOCC3)nc2)C[C@H]1C1CCCCC1` [Compound 184, 3-[(R)-2-Cyclohexyl-4-(6-morpholin-4-yl-pyridine-3-sulfonyl)-6-oxo-piperazin-1-yl]-5-phenyl-thiophene-2-carboxylic acid] showed a pIC50 (HCV polymerase) of 8.77 and a pIC50 [1, 2] of no less than 7.00.

With `C[C@@H]1CCCN1c1ccc(S(=O)(=O)N2CC(=O)N(c3cc(-c4ccc(F)cc4)sc3C(=O)O)[C@H](C3CCCCC3)C2)cn1` [Compound 185, 3-{(R)-2-Cyclohexyl-4-[6-((R)-2-methyl-pyrrolidin-1-yl)-pyridine-3-sulfonyl]-6-oxo-piperazin-1-yl}-5-(4-fluoro-phenyl)-thiophene-2-carboxylic acid] the pIC50 (HCV polymerase) was 9.00 and the pIC50 [1, 2] was no less than 7.00.

Work on `O=C(O)c1sc(-c2ccc(F)cc2)cc1N1C(=O)CN(S(=O)(=O)c2ccc(N3CCCOCC3)nc2)C[C@H]1C1CCCCC1` [Compound 186, 3-[(R)-2-Cyclohexyl-4-(6-[1,4]oxazepan-4-yl-pyridine-3-sulfonyl)-6-oxo-piperazin-1-yl]-5-(4-fluoro-phenyl)-thiophene-2-carboxylic acid] yielded a pIC50 (HCV polymerase) of 9.00 and a pIC50 [1, 2] of no less than 7.00.

In the case of `Cc1ccc(-c2cc(N3C(=O)CN(S(=O)(=O)c4ccc(N5CCOCC5)nc4)C[C@H]3C3CCCCC3)c(C(=O)O)s2)cc1` [Compound 187, 3-[(R)-2-Cyclohexyl-4-(6-morpholin-4-yl-pyridine-3-sulfonyl)-6-oxo-piperazin-1-yl]-5-p-tolyl-thiophene-2-carboxylic acid], the pIC50 (HCV polymerase) was 9.00 and the pIC50 [1, 2] was no less than 7.00.

Compound `Cc1ccc(-c2cc(N3C(=O)CN(S(=O)(=O)c4ccc(N5CCCOCC5)nc4)C[C@H]3C3CCCCC3)c(C(=O)O)s2)cc1` [Compound 188, 3-[(R)-2-Cyclohexyl-4-(6-[1,4]oxazepan-4-yl-pyridine-3-sulfonyl)-6-oxo-piperazin-1-yl]-5-p-tolyl-thiophene-2-carboxylic acid] has a pIC50 (HCV polymerase) of 9.00 and a pIC50 [1, 2] of no less than 7.00.

`O=C(O)c1sc(-c2ccc(F)cc2)cc1N1C(=O)CN(S(=O)(=O)c2ccc(N3CCOCC3)nc2)C[C@H]1C1CCCCC1` [Compound 189, 3-[(R)-2-Cyclohexyl-4-(6-morpholin-4-yl-pyridine-3-sulfonyl)-6-oxo-piperazin-1-yl]-5-(4-fluoro-phenyl)-thiophene-2-carboxylic acid] showed a pIC50 (HCV polymerase) of 9.00 and a pIC50 [1, 2] of no less than 7.00.

For `COc1ccc(S(=O)(=O)N2CC(=O)N(c3cc(C#CC(C)(C)C)sc3C(=O)O)[C@H](C3CCCCC3)C2)cc1` [Compound 190, 3-[(R)-2-Cyclohexyl-4-(4-methoxy-benzenesulfonyl)-6-oxo-piperazin-1-yl]-5-(3,3-dimethyl-but-1-ynyl)-thiophene-2-carboxylic acid], the pIC50 (HCV polymerase) was 9.00 and the pIC50 [1, 2] was no less than 7.00.

Compound `COc1ccc(S(=O)(=O)N2CC(=O)N(c3cc(C#CC(C)(C)C)sc3C(=O)O)[C@H](C3CCCCC3)C2)cn1` [Compound 191, 3-[(R)-2-Cyclohexyl-4-(6-methoxy-pyridine-3-sulfonyl)-6-oxo-piperazin-1-yl]-5-(3,3-dimethyl-but-1-ynyl)-thiophene-2-carboxylic acid] has a pIC50 (HCV polymerase) of 9.00 and a pIC50 [1, 2] of no less than 7.00.

Compound `CC(C)(C)C#Cc1cc(N2C(=O)CN(S(=O)(=O)c3cccnc3)C[C@H]2C2CCCCC2)c(C(=O)O)s1` [Compound 192, 3-[(R)-2-Cyclohexyl-6-oxo-4-(pyridine-3-sulfonyl)-piperazin-1-yl]-5-(3,3-dimethyl-but-1-ynyl)-thiophene-2-carboxylic acid] has a pIC50 (HCV polymerase) of 8.52 and a pIC50 [1, 2] of no less than 7.00.

In the case of `Cn1ccc(S(=O)(=O)N2CC(=O)N(c3cc(C#CC(C)(C)C)sc3C(=O)O)[C@H](C3CCCCC3)C2)n1` [Compound 193, 3-[(R)-2-Cyclohexyl-4-(1-methyl-1H-pyrazole-3-sulfonyl)-6-oxo-piperazin-1-yl]-5-(3,3-dimethyl-but-1-ynyl)-thiophene-2-carboxylic acid], the pIC50 (HCV polymerase) was 9.00 and the pIC50 [1, 2] was no less than 7.00.

In the case of `O=C(O)c1sc(-c2ccccc2)cc1N1C(=O)CN(S(=O)(=O)c2ccc(NC3CCOCC3)nc2)C[C@H]1C1CCCCC1` [Compound 194, 3-{(R)-2-Cyclohexyl-6-oxo-4-[6-(tetrahydro-pyran-4-ylamino)-pyridine-3-sulfonyl]-piperazin-1-yl}-5-phenyl-thiophene-2-carboxylic acid], the pIC50 (HCV polymerase) was 8.70 and the pIC50 [1, 2] was no less than 7.00.

`C[C@@H]1COCCN1c1ccc(S(=O)(=O)N2CC(=O)N(c3cc(-c4ccc(F)cc4)sc3C(=O)O)[C@H](C3CCCCC3)C2)cn1` [Compound 195, 3-{(R)-2-Cyclohexyl-4-[6-((R)-3-methyl-morpholin-4-yl)-pyridine-3-sulfonyl]-6-oxo-piperazin-1-yl}-5-(4-fluoro-phenyl)-thiophene-2-carboxylic acid] showed a pIC50 (HCV polymerase) of 8.52 and a pIC50 [1, 2] of no less than 7.00.

For `O=C(O)c1sc(-c2ccc(F)cc2)cc1N1C(=O)CN(S(=O)(=O)c2ccc(N3CC4CCC(C3)O4)nc2)C[C@H]1C1CCCCC1` [Compound 196, 3-{(R)-2-Cyclohexyl-4-[6-(8-oxa-3-aza-bicyclo[3.2.1]oct-3-yl)-pyridine-3-sulfonyl]-6-oxo-piperazin-1-yl}-5-(4-fluoro-phenyl)-thiophene-2-carboxylic acid], the pIC50 (HCV polymerase) was 9.00 and the pIC50 [1, 2] was no less than 7.00.

Work on `Cc1ccc(-c2cc(N3C(=O)CN(S(=O)(=O)c4ccc(N5CCOC[C@H]5C)nc4)C[C@H]3C3CCCCC3)c(C(=O)O)s2)cc1` [Compound 197, 3-{(R)-2-Cyclohexyl-4-[6-((R)-3-methyl-morpholin-4-yl)-pyridine-3-sulfonyl]-6-oxo-piperazin-1-yl}-5-p-tolyl-thiophene-2-carboxylic acid] yielded a pIC50 (HCV polymerase) of 8.34 and a pIC50 [1, 2] of no less than 7.00.

Work on `Cc1ccc(-c2cc(N3C(=O)CN(S(=O)(=O)c4ccc(N5CC6CCC(C5)O6)nc4)C[C@H]3C3CCCCC3)c(C(=O)O)s2)cc1` [Compound 198, 3-{(R)-2-Cyclohexyl-4-[6-(8-oxa-3-aza-bicyclo[3.2.1]oct-3-yl)-pyridine-3-sulfonyl]-6-oxo-piperazin-1-yl}-5-p-tolyl-thiophene-2-carboxylic acid] yielded a pIC50 (HCV polymerase) of 9.00 and a pIC50 [1, 2] of no less than 7.00.

For `O=C(O)c1sc(-c2ccc(Cl)cc2)cc1N1C(=O)CN(S(=O)(=O)c2ccc(N3CCOCC3)nc2)C[C@H]1C1CCCCC1` [Compound 199, 5-(4-Chloro-phenyl)-3-[(R)-2-cyclohexyl-4-(6-morpholin-4-yl-pyridine-3-sulfonyl)-6-oxo-piperazin-1-yl]-thiophene-2-carboxylic acid], the pIC50 (HCV polymerase) was 8.70 and the pIC50 [1, 2] was no less than 7.00.

Work on `O=C(O)c1sc(-c2ccc(Cl)cc2)cc1N1C(=O)CN(S(=O)(=O)c2ccc(N3CCCOCC3)nc2)C[C@H]1C1CCCCC1` [Compound 200, 5-(4-Chloro-phenyl)-3-[(R)-2-cyclohexyl-4-(6-[1,4]oxazepan-4-yl-pyridine-3-sulfonyl)-6-oxo-piperazin-1-yl]-thiophene-2-carboxylic acid] yielded a pIC50 (HCV polymerase) of 9.00 and a pIC50 [1, 2] of no less than 7.00.

Work on `CN1CCN(C(=O)c2ccc(-c3ccc(S(=O)(=O)N4CC(=O)N(c5cc(-c6ccccc6)sc5C(=O)O)[C@H](C5CCCCC5)C4)cn3)cc2)CC1` [Compound 202, 3-((R)-2-Cyclohexyl-4-{6-[4-(4-methyl-piperazine-1-carbonyl)-phenyl]-pyridine-3-sulfonyl)-6-oxo-piperazin-1-yl)-5-phenyl-thiophene-2-carboxylic acid] yielded a pIC50 (HCV polymerase) of 9.00 and a pIC50 [1, 2] of no less than 7.00.

Work on `CN(C)c1ccc(-c2ccc(S(=O)(=O)N3CC(=O)N(c4cc(-c5ccccc5)sc4C(=O)O)[C@H](C4CCCCC4)C3)cn2)cc1` [Compound 203, 3-{(R)-2-Cyclohexyl-4-[6-(4-dimethylamino-phenyl)-pyridine-3-sulfonyl]-6-oxo-piperazin-1-yl}-5-phenyl-thiophene-2-carboxylic acid] yielded a pIC50 (HCV polymerase) of 9.00 and a pIC50 [1, 2] of no less than 7.00.

In the case of `COc1ccncc1-c1ccc(S(=O)(=O)N2CC(=O)N(c3cc(-c4ccccc4)sc3C(=O)O)[C@H](C3CCCCC3)C2)cn1` [Compound 204, 3-[(R)-2-Cyclohexyl-4-(4′-methoxy-[2,3′]bipyridinyl-5-sulfonyl)-6-oxo-piperazin-1-yl]-5-phenyl-thiophene-2-carboxylic acid], the pIC50 (HCV polymerase) was 8.70 and the pIC50 ([1]; between 100 nM and 5.0 uM) was 5.30 to 7.00.
